In US10472336B2, “Modulators of indoleamine 2,3-dioxygenase” (GlaxoSmithKline Intellectual Property (No.2) Limited, priority 2015, dated 2019):
Counter-ions that a name gives are not always drawn.

The compounds below were run against indoleamine 2, 3-dioxygenase (IDO1) (Homo sapiens, UniProt P14902) (assay: HeLa IDOi assay (kynurenine detection by mass spectrometry)). Conditions: IFN-γ stimulated human epithelial HeLa cells, 2 days.
Chain of indoleamine 2, 3-dioxygenase (IDO1) (P14902 whole entry): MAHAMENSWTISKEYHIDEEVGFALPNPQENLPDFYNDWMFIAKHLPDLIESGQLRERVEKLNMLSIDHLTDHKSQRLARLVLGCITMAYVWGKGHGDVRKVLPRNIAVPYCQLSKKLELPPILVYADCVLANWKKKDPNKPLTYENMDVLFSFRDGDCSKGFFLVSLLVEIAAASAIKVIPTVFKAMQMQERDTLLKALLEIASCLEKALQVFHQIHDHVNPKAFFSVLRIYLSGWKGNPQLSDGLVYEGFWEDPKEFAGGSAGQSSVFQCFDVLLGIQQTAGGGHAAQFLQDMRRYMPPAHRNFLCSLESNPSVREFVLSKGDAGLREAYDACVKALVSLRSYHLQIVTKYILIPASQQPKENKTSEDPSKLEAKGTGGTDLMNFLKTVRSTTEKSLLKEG
Assay type: cell-based
Parameters: human epithelial HeLa cells (CCL-2; host or cells: HeLa cells stimulated with human IFN-γ
Experimental: Compounds of the present invention were tested via high-throughput cellular assays utilizing detection of kynurenine via mass spectrometry and cytotoxicity as end-points. For the mass spectrometry and cytotoxicity assays, human epithelial HeLa cells (CCL-2; ATCC®, Manassas, Va.) were stimulated with human interferon-γ (IFN-γ) (Sigma-Aldrich Corporation, St. Louis, Mo.) to induce the expression of indoleamine 2, 3-dioxygenase (IDO1). Compounds with IDO1 inhibitory properties decreased the amount of kynurenine produced by the cells via the tryptophan catabolic pathway. Cellular toxicity due to the effect of compound treatment was measured using CellTiter-Glo® reagent (CTG) (Promega Corporation, Madison, Wis.), which is based on luminescent detection of ATP, an indicator of metabolically active cells.
In preparation for the assays, test compounds were serially diluted 3-fold in DMSO from a typical top concentration of 5 mM and plated at 0.5 μL in 384-well, polystyrene, clear bottom, tissue culture treated plates with lids (Greiner Bio-One, Kremsmünster, Austria) to generate 11-point dose response curves. Low control wells (0% kynurenine or 100% cytotoxicity) contained either 0.5 μL of DMSO in the presence of unstimulated (−IFN-γ) HeLa cells for the mass spectrometry assay or 0.5 μL of DMSO in the absence of cells for the cytotoxicity assay, and high control wells (100% kynurenine or 0% cytotoxicity) contained 0.5 μL of DMSO in the presence of stimulated (+IFN-γ) HeLa cells for both the mass spectrometry and cytotoxicity assays.
Frozen stocks of HeLa cells were washed and recovered in DMEM high glucose medium with HEPES (Thermo Fisher Scientific, Inc., Waltham, Mass.) supplemented with 10% v/v certified fetal bovine serum (FBS) (Thermo Fisher Scientific, Inc., Waltham, Mass.), and 1× penicillin-streptomycin antibiotic solution (Thermo Fisher Scientific, Inc., Waltham, Mass.). The cells were diluted to 100,000 cells/mL in the supplemented DMEM medium. 50 μL of either the cell suspension, for the mass spectrometry assay, or medium alone, for the cytotoxicity assay, were added to the low control wells, on the previously prepared 384-well compound plates, resulting in 5,000 cells/well or 0 cells/well respectively. IFN-γ was added to the remaining cell suspension at a final concentration of 10 nM, and 50 μL of the stimulated cells were added to all remaining wells on the 384-well compound plates. The plates, with lids, were then placed in a 37° C., 5% CO2 humidified incubator for 2 days.
Following incubation, the 384-well plates were removed from the incubator and allowed to equilibrate to room temperature for 30 minutes. For the cytotoxicity assay, CellTiter-Glo® was prepared according to the manufacturer's instructions, and 10 μL were added to each plate well. After a twenty minute incubation at room temperature, luminescence was read on an EnVision® Multilabel Reader (PerkinElmer Inc., Waltham, Mass.). For the mass spectrometry assay, 10 μL of supernatant from each well of the compound-treated plates were added to 40 μL of acetonitrile, containing 10 μM of an internal standard for normalization, in 384-well, polypropylene, V-bottom plates (Greiner Bio-One, Kremsmünster, Austria) to extract the organic analytes. Following centrifugation at 2000 rpm for 10 minutes, 10 μL from each well of the acetonitrile extraction plates were added to 90 μL of sterile, distilled H2O in 384-well, polypropylene, V-bottom plates for analysis of kynurenine and the internal standard on the RapidFire 300 (Agilent Technologies, Santa Clara, Calif.) and 4000 QTRAP MS (SCIEX, Framingham, Mass.). MS data were integrated using Agilent Technologies' RapidFire Integrator software, and data were normalized for analysis as a ratio of kynurenine to the internal standard. […]
`CC(C)CN(CC(C)C)c1ccc(C(C)CC(=O)O)cc1Nc1nc2ccccc2[nH]1` (stereo not drawn) [Example 2, 3-(3-((1H-benzo[d]imidazol-2-yl)amino)-4-(diisobutylamino)phenyl)butanoic acid] showed an EC50 of 3.98 nM.
With `CC(C)CN(CC(C)C)c1ccc(C(C)CC(=O)O)cc1Nc1nc(-c2ccccc2)co1` (stereo not drawn) [Example 3, 3-(4-(diisobutylamino)-3-((4-phenyloxazol-2-yl)amino)phenyl)butanoic acid] the EC50 was 501 nM.
`CC(C)CN(CC(C)C)c1ccc(C(C)CC(=O)O)cc1Nc1nc(C(C)C)co1` (stereo not drawn) [Example 4, 3-(4-(diisobutylamino)-3-((4-isopropyloxazol-2-yl)amino)phenyl)butanoic acid] was tested, and the EC50 was 631 nM.
`CC(C)CN(CC(C)C)c1ccc(C(C)CC(=O)O)cc1Nc1nc(C(F)(F)F)co1` (stereo not drawn) [Example 5, 3-(4-(diisobutylamino)-3-((4-(trifluoromethyl)oxazol-2-yl)amino)phenyl)butanoic acid] gave an EC50 of 20 nM.
Compound `CC(C)CN(c1ccc(C(C)CC(=O)O)cc1Nc1nc2ccccc2[nH]1)C1CCCCC1` (stereo not drawn) [Example 6, 3-(3-((1H-benzo[d]imidazol-2-yl)amino)-4-(cyclohexyl(isobutyl)amino)phenyl)butanoic acid] has an EC50 of 2.51 nM.
In the case of `CC(C)CN(c1ccc(C(C)CC(=O)O)cc1Nc1nc(Cl)ns1)C1CCCCC1` (stereo not drawn) [Example 7, 3-(3-((3-chloro-1,2,4-thiadiazol-5-yl)amino)-4-(cyclohexyl(isobutyl)amino)phenyl)butanoic acid], the EC50 is reported as 5.01 nM.
Compound `CC(C)CN(c1ccc(C(C)CC(=O)O)cc1Nc1nc2ccccc2o1)C1CCCCC1` (stereo not drawn) [Example 8, 3-(3-(benzo[d]oxazol-2-ylamino)-4-(cyclohexyl(isobutyl)amino)phenyl)butanoic acid] has an EC50 of 31.6 nM.
Compound `CC(C)CN(c1ccc(C(C)CC(=O)O)cc1Nc1nc2ccccc2s1)C1CCCCC1` (stereo not drawn) [Example 9, 3-(3-(benzo[d]thiazol-2-ylamino)-4-(cyclohexyl(isobutyl)amino)phenyl)butanoic acid] has an EC50 of 3.98 nM.
Compound `CC(C)CN(c1ccc(C(C)CC(=O)O)cc1Nc1nc(-c2ccccc2)co1)C1CCCCC1` (stereo not drawn) [Example 10, 3-(4-(cyclohexyl(isobutyl)amino)-3-((4-phenyloxazol-2-yl)amino)phenyl)butanoic acid] has an EC50 of 100 nM.
In the case of `CC(C)CN(CC(C)C)c1ccc(C(C)CC(=O)O)cc1Nc1ccnc(Cl)n1` (stereo not drawn) [Example 11, 3-(3-((2-chloropyrimidin-4-yl)amino)-4-(diisobutylamino)phenyl)butanoic acid, 2,2,2-trifluoro-acetic acid salt], the EC50 is reported as 100 nM.
`CC(C)CN(c1ccc(C(C)CC(=O)O)cc1Nc1ccnc(Cl)n1)C1CCCCC1` (stereo not drawn) [Example 13, 3-(3-((2-chloropyrimidin-4-yl)amino)-4-(cyclohexyl(isobutyl)amino)phenyl)butanoic acid] gave an EC50 of 12.6 nM.
For `COc1nccc(Nc2cc(C(C)CC(=O)O)ccc2N(CC(C)C)C2CCCCC2)n1` (stereo not drawn) [Example 14, 3-(4-(cyclohexyl(isobutyl)amino)-3-((2-methoxypyrimidin-4-yl)amino)phenyl)butanoic acid], the EC50 was 39.8 nM.
`Cc1cnc(Nc2cc(C(C)CC(=O)O)ccc2N(CC(C)C)CC(C)C)s1` (stereo not drawn) [Example 15, 3-(4-(diisobutylamino)-3-((5-methylthiazol-2-yl)amino)phenyl)butanoic acid] was tested, and the EC50 was 158 nM.
`CC(C)CN(CC(C)C)c1ccc(C(C)CC(=O)O)cc1Nc1cnc(-c2ccccc2)s1` (stereo not drawn) [Example 16, 3-(4-(diisobutylamino)-3-((2-phenylthiazol-5-yl)amino)phenyl)butanoic acid] was tested, and the EC50 was 126 nM.
`CCOC(=O)c1ncc(Nc2cc(C(C)CC(=O)O)ccc2N(CC(C)C)CC(C)C)s1` (stereo not drawn) [Example 17, 3-(4-(diisobutylamino)-3-((2-(ethoxycarbonyl)thiazol-5-yl)amino)phenyl)butanoic acid] showed an EC50 of 25.1 nM.
Compound `Cc1csc(Nc2cc(C(C)CC(=O)O)ccc2N(CC(C)C)CC(C)C)n1` (stereo not drawn) [Example 24, 3-(4-(diisobutylamino)-3-((4-methylthiazol-2-yl)amino)phenyl)butanoic acid] has an EC50 of 316 nM.
With `CC(C)CN(CC(C)C)c1ccc(C(C)CC(=O)O)cc1Nc1nnc(C2CC2)s1` (stereo not drawn) [Example 26, 3-(3-((5-cyclopropyl-1,3,4-thiadiazol-2-yl)amino)-4-(diisobutylamino)phenyl)butanoic acid, 2,2,2-trifluoro-acetic acid salt] the EC50 was 5.01 nM.
`CC(C)CN(CC(C)C)c1ccc(C(C)CC(=O)O)cc1Nc1nnc(-c2ccccc2)s1` (stereo not drawn) [Example 27, 3-(4-(diisobutylamino)-3-((5-phenyl-1,3,4-thiadiazol-2-yl)amino)phenyl)butanoic acid] gave an EC50 of 31.6 nM.
In the case of `Cc1nnc(Nc2cc(C(C)CC(=O)O)ccc2N(CC(C)C)CC(C)C)s1` (stereo not drawn) [Example 28, 3-(4-(diisobutylamino)-3-((5-methyl-1,3,4-thiadiazol-2-yl)amino)phenyl)butanoic acid], the EC50 is reported as 31.6 nM.
Compound `CC(C)CN(CC(C)C)c1ccc(C(C)CC(=O)O)cc1Nc1nc(C2CC2)ns1` (stereo not drawn) [Example 30, 3-(3-((3-cyclopropyl-1,2,4-thiadiazol-5-yl)amino)-4-(diisobutylamino)phenyl)butanoic acid] has an EC50 of 50.1 nM.
For `Cc1nsc(Nc2cc(C(C)CC(=O)O)ccc2N(CC(C)C)CC(C)C)n1` (stereo not drawn) [Example 31, 3-(4-(diisobutylamino)-3-((3-methyl-1,2,4-thiadiazol-5-yl)amino)phenyl)butanoic acid], the EC50 was 79.4 nM.
For `CC(C)CN(CC(C)C)c1ccc(C(C)CC(=O)O)cc1Nc1nc(Br)ns1` (stereo not drawn) [Example 32, 3-(3-((3-bromo-1,2,4-thiadiazol-5-yl)amino)-4-(diisobutylamino)phenyl)butanoic acid], the EC50 was 200 nM.
Compound `CC(C)CN(c1ccc(C(C)CC(=O)O)cc1Nc1nc(C(F)(F)F)ns1)C1CCCCC1` (stereo not drawn) [Example 33, 3-(4-(cyclohexyl(isobutyl)amino)-3-((3-(trifluoromethyl)-1,2,4-thiadiazol-5-yl)amino)phenyl)butanoic acid] has an EC50 of 2.51 nM.
`CCCCc1cc(C(C)CC(=O)O)cc(Nc2nc3ccccc3o2)c1OCCC` (stereo not drawn) [Example 35, 3-(3-(benzo[d]oxazol-2-ylamino)-5-butyl-4-propoxyphenyl)butanoic acid] showed an EC50 of 200 nM.
For `CCCCc1cc(C(C)CC(=O)O)cc(Nc2nc(Cl)ns2)c1OCCC` (stereo not drawn) [Example 36, 3-(3-butyl-5-((3-chloro-1,2,4-thiadiazol-5-yl)amino)-4-propoxyphenyl)butanoic acid, 2,2,2-trifluoroacetic acid salt], the EC50 was 158 nM.
Compound `Cc1nc(Nc2cc(C(C)CC(=O)O)ccc2N(CC(C)C)CC(C)C)sc1C` (stereo not drawn) [Example 43, 3-(4-(diisobutylamino)-3-((4,5-dimethylthiazol-2-yl)amino)phenyl)butanoic acid] has an EC50 of 316 nM.
`CC(C)CN(CC(C)C)c1ccc(C(C)CC(=O)O)cc1Nc1nc(C(F)(F)F)cs1` (stereo not drawn) [Example 44, 3-(4-(diisobutylamino)-3-((4-(trifluoromethyl)thiazol-2-yl)amino)phenyl)butanoic acid] was tested, and the EC50 was 20 nM.
`Cc1sc(Nc2cc(C(C)CC(=O)O)ccc2N(CC(C)C)CC(C)C)nc1C(F)(F)F` (stereo not drawn) [Example 45, 3-(4-(diisobutylamino)-3-((5-methyl-4-(trifluoromethyl)thiazol-2-yl)amino)phenyl)butanoic acid] gave an EC50 of 79.4 nM.
`CC(C)CN(CC(C)C)c1ccc(C(C)CC(=O)O)cc1Nc1nc(C(C)C)cs1` (stereo not drawn) [Example 46, 3-(4-(diisobutylamino)-3-((4-isopropylthiazol-2-yl)amino)phenyl)butanoic acid] showed an EC50 of 126 nM.
In the case of `CC(C)CN(CC(C)C)c1ccc(C(C)CC(=O)O)cc1Nc1nc(-c2ccccc2)no1` (stereo not drawn) [Example 51, 3-(4-(diisobutylamino)-3-((3-phenyl-1,2,4-oxadiazol-5-yl)amino)phenyl)butanoic acid], the EC50 is reported as 398 nM.
